Laboratory results reported in patent US9453004B2, “Formylated xanthocillin analogues as neuroprotective agents” (NEURON BIOPHARMA, S.A., priority 2012, dated 2016).

Legend:
[1] = tested on: SK-N-MC cells expressing wild-type APP (APPwt); assay: Camptothecin-induced apoptosis (DNA fragmentation, flow cytometry) in APPwt cells; format: cell-based, human; details: pre-treatment 24 hours at 4 and 10 μg/ml, then 50 μM CPT for 6 hours
Method: (§1) Based on the preceding results, the researchers decided to analyze the antiapoptotic effect of compounds NPS0155 and NPS0156. The assays were performed on two SK-N-MC human neuroblastoma culture cell lines stably transfected with constructs expressing the amyloid precursor protein (APP) gene encoding for the isoform primarily expressed in the brain, containing 695 amino acids cloned into the expression vector pcDNA3.1 (Invitrogen). One of the lines expresses the wild-type APP (APPwt) gene and the other line expresses the gene APP with the Swedish mutation (APPswe) which is a double mutation in exon 16 of the gene and produces a G to T transversion yielding the change of amino acid Lys595Asn and another A to C transversion causing the Met596Leu change, said mutation being related to the senile or hereditary forms of Alzheimer's disease. […] To determine the effect of compounds NPS0155 and NPS0156 on apoptosis (programmed cell death), DNA fragmentation was analyzed by means of flow cytometry, produced by treatment with camptothecin (CPT) inhibiting the topoisomerase I enzyme, which impedes DNA duplication and triggers apoptotic cell death. […] They were maintained at 4° C. for 18 hours and after this time, they were analyzed by flow cytometry, measuring propidium iodide fluorescence as DNA content distribution.

[2] = tested on: SK-N-MC cells expressing APP with the Swedish mutation (APPswe); assay: Camptothecin-induced apoptosis (DNA fragmentation, flow cytometry) in APPswe cells; format: cell-based, human; details: pre-treatment 24 hours at 4 and 10 μg/ml, then 50 μM CPT for 6 hours
Method: as §1

[3] = TEAC in vitro antioxidant capacity assay; format: biochemical
Excerpt: Based on the preceding results, the inventors decided to evaluate in vitro antioxidant capacity of the extract, for which the TEAC assay ([…]) was used. This method is based on the formation of the ferryl-myoglobin radical produced by reacting metmyoglobin with hydrogen peroxide, followed by the oxidation of the ABTS [2,2′-azino-bis(3-ethylbenzthiazoline-6-sulfonic acid] reagent by ferryl-myoglobin, which produces the radical cation ABTS*+, which can be colorimetrically determined. In this assay, the compounds with antioxidant capacity suppress the production of the radical in a concentration-dependent manner. A standard curve with increasing concentrations of trolox (6-hydroxy-2,5,7,8-tetramethylchroman-2-carboxylic acid, hydrosoluble vitamin E analogue) is used to quantify antioxidant capacity, such that the results are indicated as a measurement of trolox equivalents (TE).
Based on the preceding results, the researchers decided to analyze the in vitro antioxidant capacity of compounds NPS0155 and NPS0156 by means of the TEAC assay, described in Example 2. A standard curve with increasing concentrations of trolox (hydrosoluble vitamin E analogue) was used to quantify antioxidant capacity, such that the results are indicated as a measurement of trolox equivalents (TE).

[4] = tested on: SK-N-MC human neuroblastoma culture cells; assay: XXO-induced cell death in real time (RTCA cell index); format: cell-based; details: 20 hours post-treatment
Method: These cells, not exceeding 15 passages, were seeded on E-plate 16 specific for a real time assay with the RTCA system (Real-Time Cell Analyzer, […], Roche) with a cell density of 5×10^4 cells/well. After 24 hours of cell incubation at 37° C. and 5% CO2, the cell treatments for the control conditions (culture medium); XXO (10 μM xanthine/60 mU/mL xanthine oxidase); XXO plus […] or […] at 10, 40, 100, 400, 1000 or 4000 ng/ml, were performed. The cells were incubated (at 37° C. and 5% CO2) with these treatments for 72 hours, was monitored every 10 minutes. The values that are obtained are arbitrary units indicated by the cell index, calculated from the impedance data, which is a electrical parameter that establishes the relationship between the voltage and current intensity of the adhered cells which is used as a measurement of cell viability. […] The assay was performed following the same method as the one described in Example 6, testing the analogues at 40, 100, 400 or 1000 ng/ml in the presence of XXO. The cells were incubated (at 37° C. and 5% CO2) with these treatments for 72 hours, and was monitored every 10 minutes. The values that are obtained are arbitrary units indicated by cell index, calculated from the impedance data and used as a measurement of cell viability.

[5] = ABTS*+ method, in vitro antioxidant capacity for lipophilic compounds; format: biochemical; details: for 0.1 μg of each compound
Excerpt: Based on the preceding results, the inventors decided to evaluate the in vitro antioxidant capacity of the synthesized analogues, using an antioxidant capacity measurement assay valid for lipophilic compounds, according to the ABTS*^+ method (Samaniego et al. 2007. Analytica Chimica Acta 593: 103-107). This method is based on forming the ABTS*^+ radical cation by means of oxidation with ammonium persulfate of the ABTS reagent [2,2′-azino-bis(3-ethylbenzothiazoline-6-sulfonic acid], which can be colorimetrically determined. In this assay, the compounds with antioxidant capacity suppress the oxidation of the radical in a concentration-dependent manner. A standard curve with increasing concentrations of trolox (hydrosoluble vitamin E analogue) is used to quantify antioxidant capacity, such that the results are indicated as a measurement of trolox equivalents (TE). The results obtained for analogues NPS0158 and NPS0159 are 174±13 μM TE and 165±44 μM TE, respectively, for 0.1 μg of each compound, so they show high in vitro antioxidant capacity.

in vitro = details: PAMPA; for Papp at 4 h / percentage of permeability: pig; for percentage of permeability: 4 h
Method: A mixture of lipids derived from pig brain, with a phospholipid composition very similar to the composition forming the human BBB, and referred to as PBL (Porcine Polar Brain Lipid, Avanti Polar Lipids Inc) which is prepared in microtiter plates with a MAIPNTR10 filter (Millipore), with a PVDF membrane and pore size of […], was used to mimic the blood-brain barrier. […] The percentage of barrier crossing and the effective permeability (Pe) were calculated based on the absorbance data obtained. The following formula was applied to calculate the Pe: […]

[6] = tested on: SK-N-MC human neuroblastoma culture cells; assay: Camptothecin-induced apoptosis (DNA fragmentation, flow cytometry) in SK-N-MC cells; format: cell-based; details: CPT
Method: Based on the preceding results, the researchers decided to analyze the antiapoptotic effect of compounds NPS0155 and NPS0156. The assays were performed on two SK-N-MC human neuroblastoma culture cell lines stably transfected with constructs expressing the amyloid precursor protein (APP) gene encoding for the isoform primarily expressed in the brain, containing 695 amino acids cloned into the expression vector pcDNA3.1 (Invitrogen). One of the lines expresses the wild-type APP (APPwt) gene and the other line expresses the gene APP with the Swedish mutation (APPswe) which is a double mutation in exon 16 of the gene and produces a G to T transversion yielding the change of amino acid Lys595Asn and another A to C transversion causing the Met596Leu change, said mutation being related to the senile or hereditary forms of Alzheimer's disease. The cells were maintained as the parent cells SK-N-MC, as detailed in Example 2, using geneticin at 400 μg/ml as a selection antibiotic. To determine the effect of compounds NPS0155 and NPS0156 on apoptosis (programmed cell death), DNA fragmentation was analyzed by means of flow cytometry, produced by treatment with camptothecin (CPT) inhibiting the topoisomerase I enzyme, which impedes DNA duplication and triggers apoptotic cell death. The two cell lines, not exceeding 10 passages, were seeded on 12-well microtite plate treated for adherent cells with a cell density of 4×10^5 cells/well. After 24 hours of cell incubation at 37° C. and 5% CO2, the pre-treatment of the cells with 4 and 10 μg/mL of NPS0155 or of NPS0156 for 24 hours was performed; they were subsequently treated with 50 μM CPT for 6 hours. After treatment, the cells were collected together with their culture medium and centrifuged at 300×g for 5 minutes. The medium was removed, the cells were washed with PBS solution and were fixed for 2 minutes with 500 μL of 70% ethanol at −20° C. Once they were fixed, they were centrifuged at 400×g for 5 minutes, washed with PBS and labeled with 0.05 mg/mL of propidium iodide, diluted in cycle buffer (0.1% citrate sodium, 0.3% Nonidet P-40 and 0.02 mg/mL RNAse), and were incubated for 1 hour at 37° C. They were maintained at 4° C. for 18 hours and after this time, they were analyzed by flow cytometry, measuring propidium iodide fluorescence as DNA content distribution.
Continuing with the study, the researchers decided to analyze the antiapoptotic effect of the synthesized analogues by analyzing cellular DNA fragmentation by means of flow cytometry. The cellular fragmentation measurement assay was performed on SK-N-MC human neuroblastoma culture cells, maintained as detailed in Example 2, and subjected to an aggression with camptothecin (CPT), following the same approach as the one described in Example 8. […]

[7] = tested on: SK-N-MC human neuroblastoma culture cells; assay: ROS measurement (H2DCFDA, normalized by LDH) in cells treated with XXO; format: cell-based
Method: Based on the preceding results, the inventors decided to evaluate the antioxidant capacity of the analogues in a cell model. The ROS measurement assay was performed on SK-N-MC human neuroblastoma culture cells, maintained as detailed in Example 2, subjected to aggression with xanthine/xanthine oxidase (XXO). The ROS measurement is taken by means of adding a permeable non-fluorescent probe in live cells (2′,7′-dichlorodihydrofluorescein diacetate, H2DCFDA; Biotium) which is oxidized by the action of ROS, generating 2′,7′-dichlorofluorescein (DCF) which can be detected in a fluorometer at 485 nm of excitation and 538 nm of emission. The fluorescence results were normalized by cell viability, measured by means of lactate dehydrogenase (LDH) activity, using the Roche Cytotoxicity Detection Kit (LDH). The results obtained with the analogues on the production of ROS are shown in FIG. 29 as the percentage of ROS corrected by LDH with respect to treatment with XXO of each analogue in a dose-response curve. A known ROS reduction control compound (C+) was used. * indicates the significant difference with respect to treatment with XXO according to the Student's t test (p<0.05).

Row | Structure (SMILES) | protection against apoptosis caused by CPT [1] | protection against apoptosis caused by CPT [2] | antioxidant capacity, trolox equivalents (TE) [3] | maximum protection against death caused by XXO ([4]; at 100 ng/ml) | antioxidant capacity, trolox equivalents (TE) [5] | BBB permeability (conclusion) (in vitro) | Papp at 4 h (in vitro) | percentage of permeability (in vitro) | maximum protection against apoptosis ([6]; at 10 μg/ml) | maximum ROS reduction (ROS corrected by LDH, with respect to XXO) ([7]; at 100 ng/ml) | maximum protection against death caused by XXO ([4]; at 1000 ng/ml) | further results
1 | O=CNC(=C\c1ccc(O)cc1)/C(=C/c1ccc(O)c(O)c1)NC=O [NPS0155, (1Z,3Z)-1-(3,4-dihydroxyphenyl)-4-(4-hydroxyphenyl)-2,3-diformamido-1,3-butadiene] | Protection by NPS0155 was observed at the two tested doses | Protection by NPS0155 was observed at the two tested doses | 81±19 μM TE/μg of compound | 27% | – | – | – | – | – | – | – | –
2 | O=CNC(=C\c1ccc(O)cc1)/C(=C/c1ccc(O)cc1)NC=O [NPS0156, (1Z,3Z)-1,4-Di(4-hydroxyphenyl)-2,3-diformamido-1,3-butadiene] | Protection by NPS0156 was observed at the two tested doses | Protection by NPS0156 was observed at the two tested doses | 104±29 μM TE/μg of compound | 69% | – | – | – | – | – | – | – | –
3 | Cc1ccc(/C=C(NC=O)/C(=C/c2ccc(C)cc2)NC=O)cc1 [NPS0158, (1Z,2Z)-2-(formylamino)-1-(4-methylbenzylidene)-3-(4-methylphenyl)prop-2-enylformamide] | – | – | – | – | 174±13 μM TE | moderate | 5.19 ×10⁻⁶ cm/s | 13% | 28% | 34% | 27% | –
4 | O=CNC(=C\c1ccc2c(c1)OCO2)/C(=C/c1ccc2c(c1)OCO2)NC=O [NPS0159, (1Z,2Z)-3-(1,3-benzodioxol-5-yl)-1-(1,3-benzodioxol-5-ylmethylen)-2-(formylamino)prop-2-enylformamide] | – | – | – | – | 165±44 μM TE | – | – | – | 23% | 27% | 35% | –
5 | CCOc1ccc(/C=C(NC=O)/C(=C/c2ccc(OCC)cc2)NC=O)cc1 [NPS0160, (1Z,2Z)-2-(formylamino)-1-(4-ethoxybenzylidene)-3-(4-ethoxyphenyl)prop-2-enylformamide] | – | – | – | 23% | – | – | – | – | – | 31% | – | maximum protection against apoptosis ([6]; at 1 μg/ml): 30%
6 | Cc1ccc(/C=C(NC=O)/C(=C/c2ccc(C)c(C)c2)NC=O)cc1C [NPS0161, (1Z,2Z)-1-(3,4-dimethylbenzylidene)-3-(3,4-dimethylphenyl)-2-(formylamino)-prop-2-enylformamide] | – | – | – | 26% | – | high | 14.7 ×10⁻⁶ cm/s | 29% | – | – | – | maximum protection against apoptosis ([6]; at 0.1 μg/ml): 35%; maximum ROS reduction (ROS corrected by LDH, with respect to XXO) ([7]; at 400 ng/ml): 45%
